Experimental data as given in US20250353891A1 (MEDIMMUNE LIMITED, priority 2022, published 2025).
Starred links: 1 amine or outer side, 2 acyl side, 3 side chain; linkers in the order of their positions; H or OH if unused. Non-standard residues stand in square brackets, D forms with d. Residues, ends and D or L forms follow the SMILES beside them. Groups on a side chain read outwards from the residue. *: point of attachment. C20 diacid = O=C(O)CCCCCCCCCCCCCCCCCCC(=O)*; C18 diacid = O=C(O)CCCCCCCCCCCCCCCCC(=O)*; γGlu = O=C(O)[C@H](CCC(=O)[*:2])N[*:1]; αMeF = C[C@](N)(Cc1ccccc1)C(=O)O; AEEA = NCCOCCOCC(=O)O; Aib = CC(C)(N)C(=O)O

Key:
[1] = target: human glucagon receptor (hGCGR) (Homo sapiens, UniProt P47871); assay: cAMP production (HTRF) in CHO cells expressing hGCGR; assay type: cell-based; design: expressed in transfected cells; conditions: Table 6, peptides modified at position 17; cAMP in CHO hGCGR cells; geometric mean; read-out: hGluc-R EC50
How it was run: (§1)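 Potency values represent EC50 from 4-parameter logistic curves of HTRF % Delta F signal. Receptor-expressing CHO cells (hGCGR 2×10^5 cells/mL, hGLP-1R 1×10^5 cells/mL) were exposed for 30 min at room temperature before two-step cAMP detection.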

[2] = target: human GLP-1 receptor (hGLP-1R) (Homo sapiens, UniProt P43220); assay: cAMP production (HTRF) in CHO cells expressing hGLP-1R; assay type: cell-based; design: expressed in transfected cells; conditions: for EC50: Table 6, peptides modified at position 17, cAMP in CHO hGLP-1R cells, geometric mean, read-out: hGLP-1R EC50; for % Relative Potency Ratio: Table 6, % GLP-1R activity relative to GLP-1 / % GlucR activity relative to glucagon
How it was run: as §1

Chain of human GLP-1 receptor (hGLP-1R) (P43220 24-463): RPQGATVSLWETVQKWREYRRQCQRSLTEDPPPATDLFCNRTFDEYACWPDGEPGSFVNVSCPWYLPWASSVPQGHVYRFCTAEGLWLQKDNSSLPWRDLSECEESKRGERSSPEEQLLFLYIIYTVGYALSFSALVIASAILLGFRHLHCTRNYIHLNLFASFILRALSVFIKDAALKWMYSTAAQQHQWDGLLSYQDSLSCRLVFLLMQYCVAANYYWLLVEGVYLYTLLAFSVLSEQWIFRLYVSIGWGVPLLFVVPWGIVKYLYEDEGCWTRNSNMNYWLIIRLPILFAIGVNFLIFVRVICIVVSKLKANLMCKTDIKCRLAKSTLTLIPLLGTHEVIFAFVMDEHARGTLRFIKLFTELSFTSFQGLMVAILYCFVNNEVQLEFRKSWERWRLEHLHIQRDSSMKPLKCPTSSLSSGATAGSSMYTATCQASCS
Chain of human glucagon receptor (hGCGR) (P47871 26-477): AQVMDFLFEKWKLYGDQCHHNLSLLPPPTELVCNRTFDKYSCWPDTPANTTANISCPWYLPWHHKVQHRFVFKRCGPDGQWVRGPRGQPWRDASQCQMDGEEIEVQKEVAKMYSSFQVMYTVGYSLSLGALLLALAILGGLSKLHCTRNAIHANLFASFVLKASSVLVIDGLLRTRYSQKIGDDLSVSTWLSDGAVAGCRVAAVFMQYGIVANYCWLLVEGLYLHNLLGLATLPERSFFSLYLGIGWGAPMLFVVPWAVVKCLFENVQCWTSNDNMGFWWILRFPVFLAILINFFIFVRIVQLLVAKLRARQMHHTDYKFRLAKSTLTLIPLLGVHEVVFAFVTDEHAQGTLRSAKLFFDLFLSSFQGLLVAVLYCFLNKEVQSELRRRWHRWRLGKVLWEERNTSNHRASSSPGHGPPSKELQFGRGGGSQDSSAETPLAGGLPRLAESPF

| EC50 [1] [pM] | EC50 [2] [pM] | % Relative Potency Ratio [2] | SMILES |
| --- | --- | --- | --- |
| 57.8 | 57.3 | 2.0 | CC(C)C[C@H](NC(=O)[C@H](Cc1c[nH]c2ccccc12)NC(=O)[C@H](CCCNC(=N)N)NC(=O)[C@@H](NC(=O)[C@H](Cc1ccccc1)NC(=O)[C@H](CC(=O)O)NC(=O)[C@H](CCC(N)=O)NC(=O)[C@H](C)NC(=O)[C@H](CCCNC(=N)N)NC(=O)[C@H](CCCCNC(=O)COCCOCCNC(=O)COCCOCCNC(=O)CC[C@H](NC(=O)CC[C@H](NC(=O)CCCCCCCCCCCCCCCCC(=O)O)C(=O)O)C(=O)O)NC(=O)[C@H](CCCCN)NC(=O)[C@H](CC(=O)O)NC(=O)[C@H](CC(C)C)NC(=O)[C@](C)(Cc1ccccc1)NC(=O)[C@H](CCCCN)NC(=O)[C@H](CO)NC(=O)[C@@H](NC(=O)[C@H](CC(=O)O)NC(=O)[C@H](CO)NC(=O)[C@@H](NC(=O)[C@H](Cc1ccccc1)NC(=O)[C@@H](NC(=O)CNC(=O)[C@H](CCC(N)=O)NC(=O)C(C)(C)NC(=O)[C@@H](N)Cc1c[nH]cn1)[C@@H](C)O)[C@@H](C)O)C(C)C)C(C)C)C(=O)N[C@@H](CC(C)C)C(=O)N[C@@H](CCC(=O)O)C(=O)NC(C)(C)C(=O)NCC(=O)O [Peptide 450] (H-H[Aib]QGTFTSDVSK[αMeF]LDKK([AEEA-AEEA-γGlu-γGlu-C18 diacid])RAQDFVRWLLE[Aib]G-OH; N-terminus assumed) |
| 503 | 895 | 1.1 | CC(C)C[C@H](NC(=O)[C@H](Cc1c[nH]c2ccccc12)NC(=O)[C@H](CC(C)C)NC(=O)[C@@H](NC(=O)[C@H](Cc1ccccc1)NC(=O)[C@H](CC(=O)O)NC(=O)[C@H](CCCNC(=N)N)NC(=O)[C@H](C)NC(=O)[C@H](CCCNC(=N)N)NC(=O)[C@H](CCCCNC(=O)COCCOCCNC(=O)COCCOCCNC(=O)CC[C@H](NC(=O)CCCCCCCCCCCCCCCCCCC(=O)O)C(=O)O)NC(=O)[C@H](CCCCN)NC(=O)[C@H](CC(=O)O)NC(=O)[C@H](CC(C)C)NC(=O)[C@](C)(Cc1ccccc1)NC(=O)[C@H](CCCCN)NC(=O)[C@H](CO)NC(=O)[C@@H](NC(=O)[C@H](CC(=O)O)NC(=O)[C@H](CO)NC(=O)[C@@H](NC(=O)[C@H](Cc1ccccc1)NC(=O)[C@@H](NC(=O)CNC(=O)[C@H](CCC(N)=O)NC(=O)C(C)(C)NC(=O)[C@@H](N)Cc1c[nH]cn1)[C@@H](C)O)[C@@H](C)O)C(C)C)C(C)C)C(=O)N[C@@H](CC(C)C)C(=O)NC(C)(C)C(=O)N[C@@H](CCC(=O)O)C(N)=O [Peptide 451] (H-H[Aib]QGTFTSDVSK[αMeF]LDKK([AEEA-AEEA-γGlu-C20 diacid])RARDFVLWLL[Aib]E-NH2; N-terminus assumed) |
| 151 | 495 | 0.6 | CC(C)C[C@H](NC(=O)[C@H](C)NC(=O)[C@H](CCCNC(=N)N)NC(=O)[C@H](CCCCNC(=O)COCCOCCNC(=O)COCCOCCNC(=O)CC[C@H](NC(=O)CCCCCCCCCCCCCCCCCCC(=O)O)C(=O)O)NC(=O)[C@H](CCCCN)NC(=O)[C@H](CC(=O)O)NC(=O)[C@H](CC(C)C)NC(=O)[C@](C)(Cc1ccccc1)NC(=O)[C@H](CCCCN)NC(=O)[C@H](CO)NC(=O)[C@@H](NC(=O)[C@H](CC(=O)O)NC(=O)[C@H](CO)NC(=O)[C@@H](NC(=O)[C@H](Cc1ccccc1)NC(=O)[C@@H](NC(=O)CNC(=O)[C@H](CCC(N)=O)NC(=O)C(C)(C)NC(=O)[C@@H](N)Cc1c[nH]cn1)[C@@H](C)O)[C@@H](C)O)C(C)C)C(=O)N[C@@H](CC(=O)O)C(=O)N[C@@H](Cc1ccccc1)C(=O)N[C@H](C(=O)N[C@@H](CCCNC(=N)N)C(=O)N[C@@H](Cc1c[nH]c2ccccc12)C(=O)N[C@@H](CC(C)C)C(=O)N[C@@H](CC(C)C)C(=O)NC(C)(C)C(=O)N[C@@H](CCC(=O)O)C(N)=O)C(C)C [Peptide 452] (H-H[Aib]QGTFTSDVSK[αMeF]LDKK([AEEA-AEEA-γGlu-C20 diacid])RALDFVRWLL[Aib]E-NH2) |

Continued, molecule first:

| SMILES | EC50 [1] [pM] | EC50 [2] [pM] | % Relative Potency Ratio [2] |
| --- | --- | --- | --- |
| CC(C)C[C@H](NC(=O)[C@H](Cc1c[nH]c2ccccc12)NC(=O)[C@H](CCCNC(=N)N)NC(=O)[C@@H](NC(=O)[C@H](Cc1ccccc1)NC(=O)[C@H](CC(=O)O)NC(=O)[C@H](CCC(N)=O)NC(=O)[C@H](C)NC(=O)[C@H](CCCNC(=N)N)NC(=O)[C@H](CCCCNC(=O)COCCOCCNC(=O)COCCOCCNC(=O)CC[C@H](NC(=O)CC[C@H](NC(=O)CCCCCCCCCCCCCCCCCCC(=O)O)C(=O)O)C(=O)O)NC(=O)[C@H](CCCNC(=N)N)NC(=O)[C@H](CC(=O)O)NC(=O)[C@H](CC(C)C)NC(=O)[C@](C)(Cc1ccccc1)NC(=O)[C@H](CCCCN)NC(=O)[C@H](CO)NC(=O)[C@@H](NC(=O)[C@H](CC(=O)O)NC(=O)[C@H](CO)NC(=O)[C@@H](NC(=O)[C@H](Cc1ccccc1)NC(=O)[C@@H](NC(=O)CNC(=O)[C@H](CCC(N)=O)NC(=O)C(C)(C)NC(=O)[C@@H](N)Cc1c[nH]cn1)[C@@H](C)O)[C@@H](C)O)C(C)C)C(C)C)C(=O)N[C@H](C(=O)NC(C)(C)C(=O)N[C@@H](CCC(=O)O)C(N)=O)C(C)C [Peptide 447] (H-H[Aib]QGTFTSDVSK[αMeF]LDRK([AEEA-AEEA-γGlu-γGlu-C20 diacid])RAQDFVRWLV[Aib]E-NH2; N-terminus assumed) | 667 | 170 | 7.8 |
| CC(C)C[C@H](NC(=O)[C@H](Cc1c[nH]c2ccccc12)NC(=O)[C@H](CCCNC(=N)N)NC(=O)[C@@H](NC(=O)[C@H](Cc1ccccc1)NC(=O)[C@H](CC(=O)O)NC(=O)[C@H](CCCNC(=N)N)NC(=O)[C@H](C)NC(=O)[C@H](CCCNC(=N)N)NC(=O)[C@H](CCCCNC(=O)COCCOCCNC(=O)COCCOCCNC(=O)CC[C@H](NC(=O)CC[C@H](NC(=O)CCCCCCCCCCCCCCCCC(=O)O)C(=O)O)C(=O)O)NC(=O)[C@H](CCCCN)NC(=O)[C@H](CC(=O)O)NC(=O)[C@H](CC(C)C)NC(=O)[C@](C)(Cc1ccccc1)NC(=O)[C@H](CCCCN)NC(=O)[C@H](CO)NC(=O)[C@@H](NC(=O)[C@H](CC(=O)O)NC(=O)[C@H](CO)NC(=O)[C@@H](NC(=O)[C@H](Cc1ccccc1)NC(=O)[C@@H](NC(=O)CNC(=O)[C@H](CCC(N)=O)NC(=O)C(C)(C)NC(=O)[C@@H](N)Cc1c[nH]cn1)[C@@H](C)O)[C@@H](C)O)C(C)C)C(C)C)C(=O)N[C@@H](CC(C)C)C(=O)NC(C)(C)C(=O)N[C@@H](CCC(=O)O)C(=O)O [Peptide 448] (H-H[Aib]QGTFTSDVSK[αMeF]LDKK([AEEA-AEEA-γGlu-γGlu-C18 diacid])RARDFVRWLL[Aib]E-OH) | 29 | 53.1 | 1.1 |
| CC(C)C[C@H](NC(=O)[C@H](Cc1c[nH]c2ccccc12)NC(=O)[C@H](CCC(N)=O)NC(=O)[C@@H](NC(=O)[C@H](Cc1ccccc1)NC(=O)[C@H](CC(=O)O)NC(=O)[C@H](CCCNC(=N)N)NC(=O)[C@H](C)NC(=O)[C@H](CCCNC(=N)N)NC(=O)[C@H](CCCCNC(=O)COCCOCCNC(=O)COCCOCCNC(=O)CC[C@H](NC(=O)CC[C@H](NC(=O)CCCCCCCCCCCCCCCCCCC(=O)O)C(=O)O)C(=O)O)NC(=O)[C@@H](NC(=O)[C@H](CC(=O)O)NC(=O)[C@H](CC(C)C)NC(=O)[C@](C)(Cc1ccccc1)NC(=O)[C@H](CCCCN)NC(=O)[C@H](CO)NC(=O)[C@@H](NC(=O)[C@H](CC(=O)O)NC(=O)[C@H](CO)NC(=O)[C@@H](NC(=O)[C@H](Cc1ccccc1)NC(=O)[C@@H](NC(=O)CNC(=O)[C@H](CCC(N)=O)NC(=O)C(C)(C)NC(=O)[C@@H](N)Cc1c[nH]cn1)[C@@H](C)O)[C@@H](C)O)C(C)C)[C@@H](C)O)C(C)C)C(=O)N[C@@H](CC(C)C)C(=O)N[C@@H](CCC(=O)O)C(=O)NC(C)(C)C(=O)NCC(=O)O [Peptide 449] | 242 | 207 | 2.3 |
